In ChEMBL document CHEMBL1159148, “Myo-inositol 1,4,6-trisphosphate: A new synthetic Ca2+-mobilising inositol phosphate” (Bioorg Med Chem Lett, 1993):

Species on record: Oryctolagus cuniculus
Experiment: Compound was evaluated for its ability to release [Ca2+] from permeabilised rabbit platelets
Type: functional

| EC50 [nM] | Structure (SMILES) |
| --- | --- |
| 180 | O=P(O)(O)O[C@@H]1[C@H](O)[C@H](O)[C@@H](OP(=O)(O)O)[C@H](OP(=O)(O)O)[C@H]1O (stereo in doubt; form 1) [INS(1,4,5)P3] |
| 2070 | O=P(O)(O)O[C@@H]1[C@H](O)[C@H](O)[C@@H](OP(=O)(O)O)[C@H](OP(=O)(O)O)[C@H]1O (stereo in doubt; form 2) [INS(1,4,5)P3] |
